± gives the standard deviation of the reports.
| glass transition temperature [°C] | Compound |
| --- | --- |
| 252.00 | *C(=O)c1ccc2c(c1)C(=O)N(c1ccc(Oc3ccc(C(=O)c4ccc(Oc5ccc(N6C(=O)c7ccc(*)cc7C6=O)cc5)cc4)cc3)cc1)C2=O (repeat unit) |
| 82.00 | *CCCC(C)(C)CNC(=O)CCCC(=O)N* (repeat unit) |
| 190.00 | *CCCN1C(=O)c2ccc(C(c3ccc4c(c3)C(=O)N(*)C4=O)(C(F)(F)F)C(F)(F)F)cc2C1=O (repeat unit) |
| 360.00 | *c1ccc(Cc2ccc(N3C(=O)c4cc(-c5ccc(C(C)(C)C)cc5)c(-c5cc6c(cc5-c5ccc(C(C)(C)C)cc5)C(=O)N(*)C6=O)cc4C3=O)cc2)cc1 (repeat unit) |
| 239.00 | *c1ccc(Oc2ccc(N3C(=O)c4cccc(Oc5ccc(Oc6ccc(Oc7cccc8c7C(=O)N(*)C8=O)cc6)cc5)c4C3=O)cc2)cc1 (repeat unit) |
| 29.20 | *O[Si](*)(C)CCCCCCCCCCC(=O)Oc1ccc(-c2ccc(OC(=O)c3ccc(OCC(C)CC)cc3)cc2)cc1 (repeat unit) |
| 261.00 | *Oc1c(C)cc(C2(c3cc(C)c(OC(=O)c4cccc(C(*)=O)c4)c(C)c3)CCC3CCCCC3C2)cc1C (repeat unit) |
| 9.50 | */C=C/c1cccc(/C=C/[Si](C)(CCC(F)(F)F)c2cccc([Si](*)(C)CCC(F)(F)F)c2)c1 (repeat unit) |
| 217.00 | *OC1C(COC(=O)Nc2ccccc2)OC(*)C(OC(=O)Nc2ccccc2)C1OC(=O)Nc1ccccc1 (repeat unit) |
| 159.00 | *CCN(CCOC(=O)Nc1ccc(C)c(NC(=O)O*)c1)c1ccc(/N=N/c2ccc(B(c3c(C)cc(C)cc3C)c3c(C)cc(C)cc3C)cc2)cc1 (repeat unit) |
| 190.00 | *C(=O)c1ccc2c(c1)/C(=N\c1cccc(Oc3cccc(Oc4cccc(/N=C5/OC(=O)c6ccc(*)cc65)c4)c3)c1)OC2=O (repeat unit) |
| 223.00 | */C(=C/c1cc(OC)c(/C=C(\c2ccccc2)c2ccc(-c3ccc(*)cc3)cc2)cc1OC)c1ccccc1 (repeat unit) |
| 52.00 | *c1ccc(-c2ccc(-c3ccc(-c4ccc(*)n4CCCCCCCCCCCC)s3)s2)s1 (repeat unit) |
| 272.00 | *c1ccc(Oc2ccc(C(=O)c3ccc(Oc4ccc(-c5c6c(c(*)c7ccccc57)C(=O)N(c5ccc(Cl)cc5)C6=O)cc4)cc3)cc2)cc1 (repeat unit) |
| -17.00 | *CCOCCOCCOCCOC(=O)NCCCCCCNC(=O)O* (repeat unit) |
| 290.00 | *Nc1ccc(C(c2ccc(NC(=O)c3ccc(C(*)=O)cc3)cc2)(C(F)(F)F)C(F)(F)F)cc1 (repeat unit) |
| 134.00 | *CC(*)C(=O)Oc1ccc(/N=N/c2ccc([N+](=O)[O-])cc2)cc1 (repeat unit) |
| 159.30 | *Oc1ccc(OC(=O)c2ccc(C(*)=O)cc2)cc1C(F)(F)F (repeat unit) |
| 403.00 | *c1ccc2cc(-c3nc4ccc(-c5ccc6nc(*)[nH]c6c5)cc4[nH]3)ccc2c1 (repeat unit) |
| 208.60 | *c1ccc(Oc2ccc(C(=O)c3cccc(C(=O)c4ccc(Oc5ccc(N6C(=O)c7ccc(Oc8ccc9c(c8)C(=O)N(*)C9=O)cc7C6=O)cc5)cc4)n3)cc2)cc1 (repeat unit) |
| 163.67 | *Oc1c(C)cc(-c2cc(CBr)c(Oc3ccc(C(=O)c4ccc(*)cc4)cc3)c(CBr)c2)cc1CBr (repeat unit) |
| 265.00 | *C(=O)Nc1ccc(Oc2ccc(-c3ccc(Oc4ccc(NC(=O)c5ccc6c(c5)C(=O)N(c5ccc(Oc7ccc(C8(c9ccc(Oc%10ccc(N%11C(=O)c%12ccc(*)cc%12C%11=O)cc%10)cc9)CC9CC8C8CCCC98)cc7)cc5)C6=O)cc4)cc3C)c(C)c2)cc1 (repeat unit) |
| 301.00 | *c1ccc(Oc2ccc(S(=O)(=O)c3ccc(Oc4ccc(-c5nc(-c6ccc(-c7nc(*)c(-c8ccccc8)[nH]7)cc6)[nH]c5-c5ccccc5)cc4)cc3)cc2)cc1 (repeat unit) |
| 278.00 | *Oc1ccc(C2(c3ccc(OC(*)=O)cc3)c3cc(N(C)C)ccc3-c3ccc([N+](=O)[O-])cc32)cc1 (repeat unit) |
| 5.20 | */C=N/c1ccc(C(=O)OCCCCOCCCCOCCCCOC(=O)c2ccc(/N=C/c3ccc4c(c3)c3cc(*)ccc3n4CC(CC)CCCC)cc2)cc1 (repeat unit) |

| glass transition temperature [°C] | Compound |
| --- | --- |
| 343.00 | *c1ccc(C(c2ccc(N3C(=O)c4ccc(-c5ccc6c(c5)C(=O)N(*)C6=O)cc4C3=O)cc2)(C(F)(F)F)C(F)(F)F)cc1 (repeat unit) |
| 162.00 | */C=C/C1CC(*)C2C(=O)N(c3cc(C(F)(F)F)cc(C(F)(F)F)c3)C(=O)C12 (repeat unit) |
| 108.00 | *c1ccc(C(C#N)(C(=O)OC)C(*)(C#N)C(=O)OC)cc1 (repeat unit) |
| 128.00 | *c1cc(C)c(/N=C/c2ccc(OCc3ccccc3COc3ccc(/C=N/c4cc(C)c(N5C(=O)c6ccc7c8ccc9c%10c(ccc(c%11ccc(c6c7%11)C5=O)c%108)C(=O)N(*)C9=O)cc4C)cc3)cc2)cc1C (repeat unit) |
| 276.00 | *c1ccc([Si](c2ccccc2)(c2ccccc2)c2ccc(-c3nnc(-c4ccc(-c5nnc(*)o5)o4)o3)cc2)cc1 (repeat unit) |
| 326.00 | *c1ccc(-c2ccc(-c3cc(-c4ccc(Oc5ccc(-c6cc(*)nc7ccccc67)cc5)cc4)c4ccccc4n3)cc2)cc1 (repeat unit) |
| 29.00 | *CC(*)(C)C(=O)OCc1ccc2c(c1)c1ccccc1n2CCCCCCCCCC (repeat unit) |
| 246.00 | *C(=O)c1ccc2c(c1)C(=O)N(c1ccc(OCCOc3ccc(N4C(=O)c5ccc(*)cc5C4=O)cc3)cc1)C2=O (repeat unit) |
| 37.00 | *O[Si](*)(C)CCCOc1ccc(C(=O)Oc2ccc(OC)cc2)cc1 (repeat unit) |
| 135.50 | *c1cc(Br)c(-c2c(Br)cc(N3C(=O)c4ccc(-c5ccc6c(c5)C(=O)N(*)C6=O)cc4C3=O)cc2C(=O)OCCCCCCCC)c(C(=O)OCCCCCCCC)c1 (repeat unit) |
| 297.00 | *c1ccc(Oc2ccc3ccccc3c2-c2c(Oc3ccc(N4C(=O)c5ccc(NC(=O)Nc6cccc7c(NC(=O)Nc8ccc9c(c8)C(=O)N(*)C9=O)cccc67)cc5C4=O)cc3)ccc3ccccc23)cc1 (repeat unit) |
| 112.00 | *CC(CCCCCCCCCCCC)COC(=O)NC(=O)c1cccc(C(=O)NC(=O)O*)c1 (repeat unit) |
| 161.00 | *Oc1ccc(-c2ccc(OC3(F)C(*)(F)C(F)(F)C3(F)F)cc2)cc1 (repeat unit) |
| 219.00 | *Oc1ccc(Oc2ccc(NC(=O)c3ccc(-c4ccc(C(=O)Nc5ccc(*)cc5)c(C)c4)cc3C)cc2)cc1 (repeat unit) |
| 10.00 | *CC(O)COC(=O)CCCCCCCCCCC(=O)OCC(O)COc1ccc(O*)cc1 (repeat unit) |
| 247.00 | *Oc1ccc2cc(Oc3ccc(C(=O)c4ccc(*)cc4)cc3)ccc2c1 (repeat unit) |
| 149.00 | *CC(c1ccccc1)C1C(=O)N(CCCN(CC)c2ccc(/N=N/c3ccc([N+](=O)[O-])cc3Cl)c(C)c2)C(=O)C1* (repeat unit) |
| 211.00 | *Cc1c(C)c(C)c(CNC(=O)CCCCCC(C)CC(=O)N*)c(C)c1C (repeat unit) |
| 224.00 | *c1cccc(N2C(=O)c3ccc(Oc4ccccc4Oc4ccc5c(c4)C(=O)N(*)C5=O)cc3C2=O)c1 (repeat unit) |
| 227.00 | *Nc1cc(NC(=O)Nc2ccc(CCc3ccccc3NC(*)=O)cc2)ccc1C (repeat unit) |
| 105.50 | *Oc1ccc(OC(=O)c2ccc(OCCCCCCOc3ccc(C(*)=O)cc3)cc2)cc1S(=O)(=O)c1ccccc1 (repeat unit) |
| -25.00 | *CCOCCOCCOC(=O)C1CCC(C(=O)O*)CC1 (repeat unit) |
| 272.00 | *Nc1cccc(/C=C/c2ccc(NC(=O)c3cccc(C(*)=O)c3)cc2)c1 (repeat unit) |
| 87.10 | *CC(O)CN(CCO)CC(O)COc1ccc(C(C)(C)c2ccc(O*)cc2)cc1 (repeat unit) |

| Compound | glass transition temperature [°C] |
| --- | --- |
| *CCCCCCNC(=O)C(=O)N* (repeat unit) | 250.00 |
| *CCN(*)C(=O)c1c(F)ccc(F)c1F (repeat unit) | 124.00 |
| *CCCCCCCCCCOc1ccc(/C=C/c2ccc(OCCCCCCCCCCOP(=O)(O*)OCCCCCCCCCCOc3ccc(/N=N/c4ccc(C#N)cc4)cc3)cc2)cc1 (repeat unit) | 60.00 |
| *CCOc1ccc(S(=O)(=O)c2ccc(OCCOP(=O)(O*)Oc3ccc(Br)cc3)cc2)cc1 (repeat unit) | 59.00 |
| */C=C/C1CC(*)C(C#N)(C[Si](C)(C)C)C1 (repeat unit) | 128.00 |
| *CC(*)C(=O)Oc1ccccc1 (repeat unit) | 60.00 |
| *CC(*)OC(C)CC (repeat unit) [Poly(vinyl sec-butyl ether) ] | -22 ± 3 |
| *CC(*)c1ccc(OC)cc1 (repeat unit) [Poly(p-methoxy styrene) ] | 89 ± 12 |
| *C(F)(F)C(*)(F)c1ccccc1 (repeat unit) | 206.00 |
| *CC(*)OC(=O)C(C)(C)CC(C)(C)C (repeat unit) | 55.00 |
| *=NP(=NP(=NC(=*)Oc1ccc(Br)cc1)(Oc1ccc(Br)cc1)Oc1ccc(Br)cc1)(Oc1ccc(Br)cc1)Oc1ccc(Br)cc1 (repeat unit) | 45.00 |
| *CC(*)OCC(C)C (repeat unit) [Poly(isobutyl vinyl ether)] | -22.08 ± 2.5 |
| *CCOC(=O)CCSCCC(=O)O* (repeat unit) | -43.00 |
| *CC/C=C/C[Si](*)(C)c1ccccc1 (repeat unit) | -14.90 |
| *CC(CC)O* (repeat unit) | -71.50 |
